# Laboratory results as given in ChEMBL document CHEMBL1137923, “Identification of CJC-1131-albumin bioconjugate as a stable and bioactive GLP-1(7-36) analog” (Bioorg Med Chem Lett, 2004).
# Columns and labels:
# [1] = target: T1, Glucagon-like peptide 1 receptor (Homo sapiens, UniProt P43220); test: Effective concentration against human GLP1 receptor expressed in CHO cells; type: cell-based
# [2] = target: T1, Glucagon-like peptide 1 receptor; test: Inhibitory concentration required against human GLP1 receptor expressed in CHO cell membrane homogenates; type: cell-based
# T1 sequence (P43220 whole entry): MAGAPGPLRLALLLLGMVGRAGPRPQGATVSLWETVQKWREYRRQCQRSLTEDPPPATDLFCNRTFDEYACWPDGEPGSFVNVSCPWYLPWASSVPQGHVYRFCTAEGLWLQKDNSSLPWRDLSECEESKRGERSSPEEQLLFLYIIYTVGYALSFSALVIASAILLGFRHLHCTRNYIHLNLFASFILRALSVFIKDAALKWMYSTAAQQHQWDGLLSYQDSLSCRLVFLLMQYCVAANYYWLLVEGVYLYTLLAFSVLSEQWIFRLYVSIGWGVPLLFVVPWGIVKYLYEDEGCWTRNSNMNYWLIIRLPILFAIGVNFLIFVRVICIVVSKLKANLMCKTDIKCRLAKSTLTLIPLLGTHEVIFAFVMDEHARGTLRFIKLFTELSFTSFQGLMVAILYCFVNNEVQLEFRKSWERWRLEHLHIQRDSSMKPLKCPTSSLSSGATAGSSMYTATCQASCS
SMILES,EC50 [1] [nM],IC50 [2] [nM]
CC[C@H](C)[C@H](NC(=O)[C@H](CCCCNC(=O)COCCOCCNC(=O)CCN1C(=O)C=CC1=O)NC(=O)[C@H](CCC(=O)O)NC(=O)[C@H](CCCCN)NC(=O)[C@H](C)NC(=O)[C@H](C)NC(=O)[C@H](CCC(N)=O)NC(=O)CNC(=O)[C@H](CCC(=O)O)NC(=O)[C@H](CC(C)C)NC(=O)[C@H](Cc1ccc(O)cc1)NC(=O)[C@H](CO)NC(=O)[C@H](CO)NC(=O)[C@@H](NC(=O)[C@H](CC(=O)O)NC(=O)[C@H](CO)NC(=O)[C@@H](NC(=O)[C@H](Cc1ccccc1)NC(=O)[C@@H](NC(=O)CNC(=O)[C@H](CCC(=O)O)NC(=O)[C@H](C)NC(=O)[C@@H](N)Cc1c[nH]cn1)[C@@H](C)O)[C@@H](C)O)C(C)C)C(=O)N[C@@H](C)C(=O)N[C@@H](Cc1c[nH]c2ccccc12)C(=O)N[C@@H](CC(C)C)C(=O)N[C@H](C(=O)N[C@@H](CCCCN)C(=O)NCC(=O)N[C@@H](CCCN=C(N)N)C(N)=O)C(C)C,> 1000,> 10000
CC[C@H](C)[C@H](NC(=O)[C@H](Cc1ccccc1)NC(=O)[C@H](CCC(=O)O)NC(=O)[C@H](CCCCN)NC(=O)[C@H](C)NC(=O)[C@H](C)NC(=O)[C@H](CCC(N)=O)NC(=O)CNC(=O)[C@H](CCC(=O)O)NC(=O)[C@H](CC(C)C)NC(=O)[C@H](Cc1ccc(O)cc1)NC(=O)[C@H](CCCCNC(=O)COCCOCCNC(=O)CCN1C(=O)C=CC1=O)NC(=O)[C@H](CO)NC(=O)[C@@H](NC(=O)[C@H](CC(=O)O)NC(=O)[C@H](CO)NC(=O)[C@@H](NC(=O)[C@H](Cc1ccccc1)NC(=O)[C@@H](NC(=O)CNC(=O)[C@H](CCC(=O)O)NC(=O)[C@H](C)NC(=O)[C@@H](N)Cc1c[nH]cn1)[C@@H](C)O)[C@@H](C)O)C(C)C)C(=O)N[C@@H](C)C(=O)N[C@@H](Cc1c[nH]c2ccccc12)C(=O)N[C@@H](CC(C)C)C(=O)N[C@H](C(=O)N[C@@H](CCCCN)C(=O)NCC(=O)N[C@@H](CCCN=C(N)N)C(N)=O)C(C)C,28,713
